Converted amounts (≈) assume the structure as drawn. “And” between values parts separate entries of the source, which are not always exact repeats. Equal entries are not always repeated. Structures can show the parent of a compound that is named as a salt. Where two headings read alike, the source gives them in different places.
Experiments:
[1] = tested on: RAW267.4; test: Toxicity in RAW267.4 cells (neutral red); settings: Neutral Red (Toxicity), Example 11
[2] = tested on: Norwalk virus (replicon) GT1; test: Norwalk virus replicon (GT1) in HG23, RNA hybridization; assay type: cell-based, Norwalk virus (human norovirus)
[3] = tested on: MNV MNV-1; test: Murine norovirus (MNV-1) antiviral screen in RAW267.4; assay type: cell-based; settings: Neutral Red (Cytopathology), MNV-1, RAW267.4, Example 11
[4] = tested on: HG23
[5] = in vitro; settings: human, CC50
[6] = tested on: Dengue 2; test: Dengue virus antiviral screen in HUH7; assay type: cell-based, dengue virus type 2; settings: Dengue virus, Huh-7, New Guinea C, read-out: EC50
[7] = tested on: Zika virus MR766; test: Zika virus antiviral screen in HuH-7; assay type: cell-based; settings: for EC50: Zika virus, read-out: EC50
[8] = Phosphatidylcholine binding (thin-layer chromatographic run); settings: words
[9] = tested on: CCRF-CEM; test: Cytotoxicity on CCRF-CEM; settings: read-out: Cytotoxicity CC50, CCRF-CEM
[10] = in vitro; settings: African green monkey
[11] = tested on: Vero; settings: African green monkey
[12] = in vitro; settings: human
[13] = tested on: HIV-1 strain LAI; test: HIV-1 replication reverse transcriptase (RT) assay in PBMC; assay type: cell-based, human immunodeficiency virus type 1; settings: for EC90: Human immunodeficiency virus 1, read-out: Anti-HIV-1LAI activity EC90
[14] = tested on: PBMC; settings: human
[15] = Cytotoxicity on primary human foreskin fibroblasts; settings: human
[16] = tested on: Herpes simplex virus type 1 E-377; test: Herpes simplex virus type 1 antiviral screen in primary HFF-1 (CellTiter-Glo); assay type: cell-based; settings: Human alphaherpesvirus 1; E-377, Primary HFF-1, CellTiter-Glo
[17] = tested on: Vaccinia virus Copenhagen; test: microbe, parasite or virus in culture; assay type: cell-based; settings: Orthopoxvirus vaccinia, HFF-1
[18] = tested on: Enterovirus D68 US/KY/14-18953; test: Enterovirus D68 antiviral screen in RD; assay type: cell-based; settings: Enterovirus D, US/KY/14-18953, RD, read-out: EC50
[19] = Cytotoxicity on RD host cells; assay type: cell-based; settings: human, RD cells, Enterovirus D68 screen, read-out: CC50
[20] = tested on: Hepatitis B virus (HBV) ayw; test: Hepatitis B virus replication in HepAD38 (32P dot blot); assay type: cell-based; settings: Hepatitis B virus
[21] = tested on: Hepatitis C virus (replicon) clone B (genotype 1a); test: HCV genotype 1a HuH-7 clone B subgenomic replicon RNA replication; assay type: cell-based, human hepatitis C virus; settings: Fixed: 10 μM, Clone B genotype 1a, HuH-7, Replicon
[22] = tested on: cellular ribosomal RNA (rRNA) synthesis; test: Cellular ribosomal RNA synthesis in HCV replicon cells (TaqMan RT-qPCR); assay type: cell-based; settings: Fixed: 10 μM, Clone B genotype 1a, HuH-7, Replicon
[23] = in vitro; settings: African green monkey; remark: listed apart in the source
[24] = tested on: Tacaribe TRVL11573; test: microbe, parasite or virus in culture; assay type: cell-based, Tacaribe virus
[25] = tested on: swine-origin pandemic influenza A (H1N1) virus; test: microbe, parasite or virus in culture; assay type: cell-based
[26] = tested on: Respiratory syncytial type A A2 (VR-1540); test: Respiratory syncytial virus type A antiviral screen in MA-104; assay type: cell-based; settings: human respiratory syncytial virus, MA104, A2 (VR-1540), read-out: EC50
[27] = tested on: Rift Valley fever MP-12; test: microbe, parasite or virus in culture; assay type: cell-based, Rift Valley fever virus
[28] = Cytotoxicity on CCRF-CEM; settings: human, CCRF-CEM cells (T-lymphoblastic acute T cell leukemia), Cytotoxicity CC50, CCRF-CEM
[29] = rats, twice daily 1-2 mg kg−1 po; cited from earlier work
[30] = biological target: cytosolic progesterone receptors (PR) (Homo sapiens, UniProt P06401); settings: Peeters et al., 2008; cited from earlier work
Chain of cytosolic progesterone receptors (PR) (P06401 whole entry): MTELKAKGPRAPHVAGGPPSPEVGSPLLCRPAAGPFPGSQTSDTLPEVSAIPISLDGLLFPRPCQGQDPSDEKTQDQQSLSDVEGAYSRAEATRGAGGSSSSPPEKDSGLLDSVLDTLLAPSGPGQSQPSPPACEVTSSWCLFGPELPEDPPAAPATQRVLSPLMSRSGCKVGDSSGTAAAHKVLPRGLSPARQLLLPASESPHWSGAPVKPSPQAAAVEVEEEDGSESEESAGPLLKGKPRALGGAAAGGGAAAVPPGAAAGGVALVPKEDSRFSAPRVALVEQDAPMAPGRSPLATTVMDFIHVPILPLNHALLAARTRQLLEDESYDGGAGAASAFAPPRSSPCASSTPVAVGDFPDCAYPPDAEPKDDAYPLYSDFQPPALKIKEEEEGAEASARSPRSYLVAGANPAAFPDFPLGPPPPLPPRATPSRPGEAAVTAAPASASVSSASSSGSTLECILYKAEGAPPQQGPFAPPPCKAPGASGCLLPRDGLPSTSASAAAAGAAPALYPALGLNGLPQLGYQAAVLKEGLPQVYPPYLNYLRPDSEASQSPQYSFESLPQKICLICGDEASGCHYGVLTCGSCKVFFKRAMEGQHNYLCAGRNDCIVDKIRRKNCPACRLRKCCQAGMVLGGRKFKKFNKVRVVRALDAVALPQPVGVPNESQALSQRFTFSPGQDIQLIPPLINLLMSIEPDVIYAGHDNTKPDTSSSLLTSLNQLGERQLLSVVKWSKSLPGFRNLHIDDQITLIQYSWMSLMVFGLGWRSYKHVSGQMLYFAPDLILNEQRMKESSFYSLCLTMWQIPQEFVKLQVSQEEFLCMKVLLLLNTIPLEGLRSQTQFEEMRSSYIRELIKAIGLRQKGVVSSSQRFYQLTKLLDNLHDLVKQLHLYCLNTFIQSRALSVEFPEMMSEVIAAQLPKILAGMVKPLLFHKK

[31] = biological target: T1, cytosolic GRs (Homo sapiens, UniProt P04150); settings: Peeters et al., 2008; cited from earlier work
T1 sequence (P04150 1-777): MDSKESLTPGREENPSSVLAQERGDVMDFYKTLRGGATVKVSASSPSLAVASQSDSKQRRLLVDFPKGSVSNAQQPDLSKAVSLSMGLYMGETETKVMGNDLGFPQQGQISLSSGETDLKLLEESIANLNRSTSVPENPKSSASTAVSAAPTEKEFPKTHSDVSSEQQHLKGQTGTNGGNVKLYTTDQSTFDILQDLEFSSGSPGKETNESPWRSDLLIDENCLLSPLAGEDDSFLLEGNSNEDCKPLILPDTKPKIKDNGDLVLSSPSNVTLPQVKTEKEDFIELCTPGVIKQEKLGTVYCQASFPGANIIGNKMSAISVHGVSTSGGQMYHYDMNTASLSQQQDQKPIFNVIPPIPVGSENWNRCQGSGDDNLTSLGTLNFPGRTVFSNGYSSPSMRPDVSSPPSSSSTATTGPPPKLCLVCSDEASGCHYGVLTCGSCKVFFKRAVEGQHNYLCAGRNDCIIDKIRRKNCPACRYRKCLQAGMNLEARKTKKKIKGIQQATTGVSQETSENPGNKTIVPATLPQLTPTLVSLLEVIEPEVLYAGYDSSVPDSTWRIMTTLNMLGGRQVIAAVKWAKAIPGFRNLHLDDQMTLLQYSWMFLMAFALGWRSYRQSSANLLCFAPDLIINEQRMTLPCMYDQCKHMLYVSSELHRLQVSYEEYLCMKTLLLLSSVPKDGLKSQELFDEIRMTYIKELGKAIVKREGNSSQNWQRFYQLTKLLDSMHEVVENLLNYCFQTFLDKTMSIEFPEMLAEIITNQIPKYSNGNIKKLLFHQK

[32] = cited from earlier work
[33] = tested on: Poliovirus type 3 WM-3; test: microbe, parasite or virus in culture; assay type: cell-based; settings: Enterovirus C, Vero 76
[34] = tested on: Vero 76; settings: African green monkey
[35] = tested on: Enterovirus 71 Tainan/4643/98; test: microbe, parasite or virus in culture; assay type: cell-based; settings: Enterovirus A, Vero 76

With `CC#CC1(O)CCC2C3CCC4=CC(=NNC(=S)Nc5ccccc5)CCC4=C3C(c3ccc4c(c3)OCO4)CC21C.CC#CC1(O)CCC2C3CCC4=CC(=O)CCC4=C3C(c3ccc4c(c3)OCO4)CC21C` (mixture of isomers) [PT156, 1/17(11β,17β)-17-Hydroxy-11-[3,4-(methylenedioxy)phenyl]-17-(1-propyn-1-yl)estra-4,9-dien-3-one (ORG34517)×(2EZ)-2-{(11β,17β)-17-hydroxy-11-[3,4-(methylenedioxy)phenyl]-17-(1-propyn-1-yl)estra-4,9-dien-3-ylidene}-N-phenylhydrazinecarbothioamide [74.1% (E), 25.9% (Z)] 11/17hydrate] the CC50 [1] was 33 µM, the EC90 ([2]; RNA Hybridization (Replicon), NV GT1, HG23, Example 10) was > 100 µM and the EC50 ([2]; RNA Hybridization (Replicon), NV GT1, HG23, Example 10, unit from Conc. Range) was > 100 µM. For the same compound, the EC90 [3] was 0.29 µM, the EC50 ([3]; unit from Conc. Range) was 0.091 µM and the CC50 [4] was > 100 µM.
In the case of `O=c1cnn([C@@H]2O[C@H](CO)[C@@H](O)[C@H]2O)c(=O)[nH]1` [6-azauridine, reference compound], the CC50 [5] is reported as > 408 µM, the EC50 ([6]; HuH-7, Neutral red) is reported as 4.6 µg/mL (≈ 18.8 µM) and the EC50 ([6]; HuH-7, Visual) is reported as 2.8 µg/mL (≈ 11.4 µM). It also gave an EC90 ([7]; Huh-7, Visual (Virus yield reduction), Zika virus MR766, HUH7, Example 9, unit from Conc. Range, read-out: EC90) of 0.89 µg/mL (≈ 3.63 µM), an EC50 ([7]; Huh-7, MR766, HuH-7, Neutral red) of 11 µg/mL and an EC50 ([7]; Huh-7, MR766, HuH-7, Visual) of 3.2 µg/mL. It also gave an EC50 ([7]; Huh-7, Neutral Red (Cytopathic effect/Toxicity), Zika virus MR766, HUH7, Example 9) of 4.1 µg/mL and an EC50 ([7]; Huh-7, Zika virus MR766, HuH-7, Table 10) of 13.1 µM.
With `CC#C[C@]1(O)CC[C@H]2[C@@H]3CCC4=C/C(=N/NC(N)=S)CCC4=C3[C@@H](c3ccc4c(c3)OCO4)C[C@@]21C` [(E)-ORG34517 thiosemicarbazone] the “binding to PC” value [8] was “Weak (stereospecific!) binding to PC”.
`Cc1cn([C@H]2C[C@H](N=[N+]=[N-])[C@@H](CO)O2)c(=O)[nH]c1=O` [AZT, 3′-azido-3′-deoxythymidine, reference compound] gave a CC50 [9] of 14.3 µM, a CC50 ([9]; listed as zidovudine (AZT)) of 56.1 µM and a CC50 ([10]; Cytotoxicity CC50) of 56 µM. For the same compound, the CC50 [11] was 39.5 µM, the CC50 [12] was > 100 µM and the EC50 ([13]; Human immunodeficiency virus 1, PBMC, LAI, PBMC, RT 3H-dTTP, read-out: EC50) was 0.00079 µM. The EC90 ([13]; in PBMC) was 0.0299 µM, the EC50 ([13]; in PBMC, listed as zidovudine (AZT), read-out: Anti-HIV-1LAI activity EC50) was 0.0044 ± 0.0039 µM and the CC50 [14] was > 100 µM.
With `Nc1nc2c(ncn2COCCO)c(=O)[nH]1` [Aciclovir] the CC50 ([15]; primary human foreskin fibroblasts (HFF-1), CC50, Herpes simplex virus type 1 screen, Primary HFF-1, CellTiter-Glo) was > 150 µM and the EC50 [16] was 3.85 µM.
With `Nc1ccn(C[C@@H](CO)OCP(=O)(O)O)c(=O)n1` [Cidofovir] the CC50 ([15]; primary HFF-1 human foreskin fibroblasts, CC50) was > 150 µM and the EC50 [17] was 7.34 µM.
For `CC(C)S(=O)(=O)n1c(N)nc2ccc(/C(=N/O)c3ccccc3)cc21` [Enviroxime], the EC50 ([18]; Neutral red) was 0.1 µg/mL (≈ 0.279 µM), the EC50 ([18]; Visual) was < 0.1 µg/mL and the CC50 ([19]; Neutral red) was 25 µg/mL (≈ 69.7 µM). For the same compound, the CC50 ([19]; Visual) was 32 µg/mL (≈ 89.3 µM).
In the case of `Nc1ccn([C@@H]2CS[C@H](CO)O2)c(=O)n1` [Lamivudine], the EC50 [20] is reported as 0.03 µM.
In the case of `C[C@@]1(O)[C@H](O)[C@@H](CO)O[C@H]1n1ccc(N)nc1=O` [RS-446], the EC50 ([2]; Norovirus/1968/US, HG23, Replicon) is reported as 6.9 µM, the “% Inhib replication” value [21] is reported as 98.08% and the “% Inhib rRNA(tox)” value [22] is reported as 31.09%.
With `NC(=O)c1ncn([C@@H]2O[C@H](CO)[C@@H](O)[C@H]2O)n1` [Ribavirin] the CC50 [23] was > 1000 µg/mL, the CC50 ([10]; CC50) was > 1000 µg/mL and the EC50 [24] was 7 µg/mL (≈ 28.7 µM). The EC50 ([24]; Mammarenavirus tacaribeense, Vero) was 7.9 µg/mL (≈ 32.3 µM), the EC50 [25] was 13 µg/mL (≈ 53.2 µM) and the EC50 ([25]; Influenza A virus, H1N1, MDCK) was 14 µg/mL (≈ 57.3 µM). For the same compound, the EC50 ([26]; MA-104, Neutral red) was 6.8 µg/mL (≈ 27.8 µM), the EC50 ([26]; MA-104, Visual) was 6.7 µg/mL (≈ 27.4 µM) and the EC50 [27] was 8.3 µg/mL (≈ 34 µM). It also gave an EC50 ([27]; Rift Valley fever virus, Vero 76) of 9.7 µg/mL (≈ 39.7 µM).
In the case of `Nc1ccn([C@@H]2O[C@H](CO)[C@@H](O)[C@H]2O)c(=O)[n+]1[C-2][n+]1c(N)ccn([C@@H]2O[C@H](CO)[C@@H](O)[C@H]2O)c1=O` [TCY-1, Bis(cytidin-3-ium-3-yl)methanediide monohydrochloride×1.25H2O], the CC50 [28] is reported as > 100 µM, the CC50 ([10]; Cytotoxicity CC50) is reported as > 100 µM and the CC50 [12] is reported as > 100 µM. For the same compound, the EC50 ([13]; Human immunodeficiency virus 1, PBMC, in PBMC, read-out: Anti-HIV-1LAI activity EC50) was 0.29 µM and the EC90 ([13]; in PBMC) was 1 µM.
For `CC#C[C@]1(O)CC[C@H]2[C@@H]3CCC4=CC(=O)CCC4=C3[C@@H](c3ccc(N(C)C)cc3)C[C@@]21C` [mifepristone, reference compound], the embryos lost [29] is given as ~100%, the “value for the cytosolic progesterone receptors (PR)” value [30] is given as 36% and the “bound to cytosolic GRs, value” [31] is given as 193%. For the same compound, the responding ([32]; glucose intolerant group) was 60% and the responding ([32]; hypertensive group) was 43%.
With `CCOC(=O)c1ccc(OCCC2CCN(c3ccc(C)nn3)CC2)cc1` [pirodavir, reference compound] the CC50 [23] was > 27 µM and > 10 µg/mL, the EC50 [33] was 0.97 µM and the EC90 [33] was 0.14 µg/mL (≈ 0.379 µM). It also gave a CC50 [34] of 7.8 µg/mL (≈ 21.1 µM), an EC50 [35] of 0.097 µM and an EC90 [35] of 0.23 µg/mL (≈ 0.623 µM).
